In patent publication US6440952B2, “Phosphono-carboxylate compounds for treating amyloidosis” (Queen's University at Kingston, priority 1999, dated 2002):
Counter-ions that a name gives are not always drawn.

Tests used:
[1] = target: T1, Aβ peptide (Homo sapiens, UniProt P05067); experiment: in vitro circular dichroism (CD) assay for formation of β-sheet secondary structure; format: biochemical; settings: Aβ peptide with test compound in 10 mM Tris-HCl pH 7, incubated 0 or 24 hours at 37° C.
T1 construct: Aβ is a 40 amino acid protein associated with Alzheimer's disease; made in house; host or cells: chemical solid-phase peptide synthesis (no expression host)
From the text: It is known that amyloidogenic peptides or proteins which have formed amyloid deposits or plaques have a significant amount of β-sheet secondary structure, while the unaggregated peptide or protein generally has less β-sheet structure. It is believed that the ability of a candidate therapeutic compound to prevent the formation of β-sheet secondary structure in vitro may be correlated with the ability of the compound to inhibit amyloidogenesis in vivo. Accordingly, phosphonate compounds were assayed for ability to prevent the formation of β-sheet secondary structure in assay systems including an in vitro circular dichroism (CD) assay.
Aβ is a 40 amino acid protein associated with Alzheimer's disease. Aβ peptide was prepared and purified as described in Fraser, P. E. et al., Biochemistry 31, 10716 (1992). Briefly, the peptide was synthesized by standard solid-phase techniques and purified by HPLC according to well known procedures.
All CD experiments were performed on a commercially available instrument. The cell is was maintained at 25° C. using a circulating water bath. Computer-averaging of traces was performed to improve signal-to-noise ratios. The solvent signal was subtracted. CD experiments were performed for each test compound according to the following procedure:
A stock solution of purified peptide was made by dissolving the peptide in phosphate-buffered saline (PBS) to a concentration of 2 mg/ml. A test solution was made for each potential therapeutic agent (test compound) as shown below:
The control sample had no test compound, and a total of 5 μl distilled water was added. The test solution was incubated for either 0 or 24 hours at 37° C. before CD measurement. The size minimum in the CD spectrum at 218 nm is believed to be diagnostic of the presence of β-pleated sheet. Comparison of the minimum at 218 nm of a candidate compound, compared to the minimum of a control sample, is believed to be indicative of the ability of the candidate compound to inhibit the formation of β-pleated sheet.

[2] = target: T2, amyloid peptide (Homo sapiens, UniProt P05067); experiment: amyloid peptide solubility assay (overnight incubation, centrifugation, determination of soluble peptide); format: biochemical; settings: compound and amyloid peptide incubated together overnight, preliminary result, buffer composition may have interfered
T2 construct: Aβ is a 40 amino acid protein associated with Alzheimer's disease

[3] = test system: cortical/hippocampal neuronal cultures; experiment: neurotoxicity in cortical/hippocampal neuronal cultures; format: cell-based; settings: concentrations ranging from 10^−7M to 10^−4 M

T1 sequence (P05067 672-711 limits assumed): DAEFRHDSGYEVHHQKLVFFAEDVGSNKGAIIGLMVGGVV
T2 sequence (P05067 672-711 limits assumed): as above

| Compound | reduction of β-sheet formation as measured by the CD assay (minimum at 218 nm versus control) [1] | effect on amyloid peptide solubility [2] | neurotoxicity [3] |
| --- | --- | --- | --- |
| O=C(O)CCP(=O)(O)O [2 carboxyethylphosphonic acid] | lower ability to prevent β-pleated sheet formation |  |  |
| O=C(O)CP(=O)(O)O [Phosphonoacetate] | active |  |  |
| O=C(O)P(=O)(O)O [phosphonoformate trisodium salt, Trisodium phosphonoformate] | significantly and reproducibly reduce the amount of β-sheet formation | little effect on amyloid peptide solubility | no significant toxicity |
